Assay results: patent US20210196674A1, “Therapeutics for Malaria” (priority 2015, published 2021)
Read-outs that look alike come from different tables or passages of the source.

Assays:
[1] = tested on: malaria (P. falciparum) infection; assay: Clinical trials in Haiti: 16-day low-dose Artemisinin with or without Citrus bioflavonoid; assay type: in vivo, human; conditions: single 16-day treatment; daily Artemisinin: babies 25 mg, children 2-12 years 50 mg, adults 100 mg; n=17
Protocol: In one example, patients in Haiti with non-complicated and complicated malaria (P. falciparum) infection were recruited to test the efficacy of peroxybioflavonoid treatment. The treated patient population included infants (n=7), children under age 18 (n>100), and adults (n>75).
Each day, babies were given 25 mg, children 2-12 years old received 50 mg and adults 100 mg of Artemisinin (low-dose Artemisinin). In some patients, Artemisinin was given alone. In other patients, the Artemisinin was combined with Citrus bioflavonoid (peroxybioflavonoid). Patients were treated for 16 days.

[2] = in vivo, cited from earlier work; for half-life in the blood: po
Staphylococcus aureus = conditions: cited from earlier work; for growth inhibitory action: alone; for effect with berberine against Staphylococcus aureus: combination with berberine, attributed to inhibition of MDR pump
Plasmodium berghei = conditions: curcumin orally 100 mg/kg in combination with Artemisinin at 0.75 and 1.5 mg/mouse; cited from earlier work
Plasmodium falciparum = conditions: cited from earlier work; for antimalarial effect: alone, catechins from a crude green tea extract; for effect on Artemisinin activity in vitro: combination with Artemisinin
[3] = after consumption of 200 mg of naringenin, present in grapefruit juice; cited from earlier work
[4] = lambs; cited from earlier work

Compound: C[C@@H]1CC[C@H]2[C@@H](C)C(=O)O[C@@H]3O[C@@]4(C)CC[C@@H]1[C@]32OO4 [Artemisinin]
- remained free of malaria post-treatment [1]: up to nine
- half-life [2]: very short

Compound: CCO[C@H]1O[C@@H]2O[C@@]3(C)CC[C@H]4[C@H](C)CC[C@@H]([C@H]1C)[C@@]24OO3 [arteether]
- half-life ([2]; im): 7 to 9 h
- half-life in the blood [2]: 1 to 2 h

Compound: C[C@H]1[C@H](OC(=O)CCC(=O)O)O[C@@H]2O[C@@]3(C)CC[C@H]4[C@H](C)CC[C@@H]1[C@@]24OO3 [artesunate]
- half-life ([2]; im): 7 to 9 h
- half-life in the blood [2]: 1 to 2 h

Compound: COc1cc(-c2oc3cc(OC)c(OC)c(O)c3c(=O)c2OC)ccc1O [chrysoplenetin]
- growth inhibitory action (Staphylococcus aureus): very weak
- effect with berberine against Staphylococcus aureus (Staphylococcus aureus): synergistic effect

Compound: COc1cc2oc(-c3ccc(O)c(O)c3)c(OC)c(=O)c2c(O)c1OC [chrysosplenol-D]
- growth inhibitory action (Staphylococcus aureus): very weak
- effect with berberine against Staphylococcus aureus (Staphylococcus aureus): synergistic effect

Compound: COc1cc(/C=C/C(=O)CC(=O)/C=C/c2ccc(O)c(OC)c2)ccc1O [curcumin]
- survival rate of infected mice (Plasmodium berghei): increased survival rate

Compound: O=C(O[C@@H]1Cc2c(O)cc(O)cc2O[C@@H]1c1cc(O)c(O)c(O)c1)c1cc(O)c(O)c(O)c1 [epigallocatechin gallate]
- antimalarial effect (Plasmodium falciparum): antimalarial effects of their own
- effect on Artemisinin activity in vitro (Plasmodium falciparum): potentiate the effects of Artemisinin

Compound: O=C1C[C@@H](c2ccc(O)cc2)Oc2cc(O)cc(O)c21 [naringenin]
- plasma concentrations [3]: ≤ 6.0 µM

Compound: O=c1c(O)c(-c2ccc(O)c(O)c2)oc2cc(O)cc(O)c12 [quercetin]
- bioavailability of moxidectin [4]: increase the bioavailability

Compound: catechin gallate
- antimalarial effect (Plasmodium falciparum): antimalarial effects of their own
- effect on Artemisinin activity in vitro (Plasmodium falciparum): potentiate the effects of Artemisinin
